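Dose response: 5 concentrations. Exposure: 48 h. Format: 96-well plates. Endpoint: linear interpolation; highest concentration if not reached. GI50: concentration for 50% inhibition of growth.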 Activity calls are given as the source filed them. Rule as the data show it: active = GI50 up to about 1.1 µM and inactive = higher.
What was measured:
Experiment in all cases: DTP human tumour cell line panel, 48 h
MOLT-4 = tested on: MOLT-4
HT-29 = tested on: HT-29
DMS-273 = tested on: DMS-273
K562 = tested on: K562
UO-31 = tested on: UO-31
NCI-H460 = tested on: NCI-H460
OVCAR-4 = tested on: OVCAR-4
HOP-62 = tested on: HOP-62
HOP-92 = tested on: HOP-92
SF-539 = tested on: SF-539
A549 = tested on: A549
LXFL 529 = tested on: LXFL 529
ACHN = tested on: ACHN
SNB-75 = tested on: SNB-75
KM12 = tested on: KM12
SR = tested on: SR
SK-MEL-28 = tested on: SK-MEL-28
SK-MEL-2 = tested on: SK-MEL-2
SF-295 = tested on: SF-295
SNB-19 = tested on: SNB-19
RPMI-8226 = tested on: RPMI-8226
CAKI-1 = tested on: CAKI-1
SNB-78 = tested on: SNB-78
EKVX = tested on: EKVX
HCT-116 = tested on: HCT-116
SW-620 = tested on: SW-620
NCI-H23 = tested on: NCI-H23
NCI-H522 = tested on: NCI-H522
HL-60 = tested on: HL-60
A498 = tested on: A498
OVCAR-5 = tested on: OVCAR-5
SF-268 = tested on: SF-268
TK-10 = tested on: TK-10
DMS-114 = tested on: DMS-114
RXF 631 = tested on: RXF 631
OVCAR-8 = tested on: OVCAR-8
NCI-H226 = tested on: NCI-H226
SK-MEL-5 = tested on: SK-MEL-5
UACC-62 = tested on: UACC-62
SK-OV-3 = tested on: SK-OV-3
U-251 = tested on: U-251
IGROV-1 = tested on: IGROV-1
KM-20L2 = tested on: KM-20L2
RXF 393 = tested on: RXF 393
DLD-1 = tested on: DLD-1
HOP-18 = tested on: HOP-18
SN12C = tested on: SN12C
M19-MEL = tested on: M19-MEL
Malme-3M = tested on: Malme-3M
LOX IMVI = tested on: LOX IMVI
CCRF-CEM = tested on: CCRF-CEM
COLO 205 = tested on: COLO 205
HCC 2998 = tested on: HCC 2998
786-0 = tested on: 786-0
UACC-257 = tested on: UACC-257
OVCAR-3 = tested on: OVCAR-3
XF498 = tested on: XF498
M14 = tested on: M14
HCT-15 = tested on: HCT-15

SMILES: Cc1nc(N)sc1C(=O)/C=C\c1ccc2c(c1)OCO2
- GI50 (MOLT-4): > 100 µM (inactive)
- GI50 (HT-29): > 100 µM (inactive)
- GI50 (DMS-273): > 100 µM (inactive)
- GI50 (K562): > 100 µM (inactive)
- GI50 (UO-31): > 100 µM (inactive)
- GI50 (NCI-H460): > 100 µM (inactive)
- GI50 (OVCAR-4): > 100 µM (inactive)
- GI50 (HOP-62): > 100 µM (inactive)
- GI50 (HOP-92): > 100 µM (inactive)
- GI50 (SF-539): > 100 µM (inactive)
- GI50 (A549): > 100 µM (inactive)
- GI50 (LXFL 529): > 100 µM (inactive)
- GI50 (ACHN): > 100 µM (inactive)
- GI50 (SNB-75): > 100 µM (inactive)
- GI50 (KM12): > 100 µM (inactive)
- GI50 (SR): > 100 µM (inactive)
- GI50 (SK-MEL-28): > 100 µM (inactive)
- GI50 (SK-MEL-2): > 100 µM (inactive)
- GI50 (SF-295): > 100 µM (inactive)
- GI50 (SNB-19): > 100 µM (inactive)
- GI50 (RPMI-8226): > 100 µM (inactive)
- GI50 (CAKI-1): > 100 µM (inactive)
- GI50 (SNB-78): > 100 µM (inactive)
- GI50 (EKVX): > 100 µM (inactive)
- GI50 (HCT-116): > 100 µM (inactive)
- GI50 (SW-620): > 100 µM (inactive)
- GI50 (NCI-H23): > 100 µM (inactive)
- GI50 (NCI-H522): > 100 µM (inactive)
- GI50 (HL-60): > 100 µM (inactive)
- GI50 (A498): > 100 µM (inactive)
- GI50 (OVCAR-5): > 100 µM (inactive)
- GI50 (SF-268): > 100 µM (inactive)
- GI50 (TK-10): > 100 µM (inactive)
- GI50 (DMS-114): > 100 µM (inactive)
- GI50 (RXF 631): > 100 µM (inactive)
- GI50 (OVCAR-8): > 100 µM (inactive)
- GI50 (NCI-H226): > 100 µM (inactive)
- GI50 (SK-MEL-5): > 100 µM (inactive)
- GI50 (UACC-62): > 100 µM (inactive)
- GI50 (SK-OV-3): > 100 µM (inactive)
- GI50 (U-251): > 100 µM (inactive)
- GI50 (IGROV-1): > 100 µM (inactive)
- GI50 (KM-20L2): > 100 µM (inactive)
- GI50 (RXF 393): > 100 µM (inactive)
- GI50 (DLD-1): > 100 µM (inactive)
- GI50 (HOP-18): > 100 µM (inactive)
- GI50 (SN12C): > 100 µM (inactive)
- GI50 (M19-MEL): > 100 µM (inactive)
- GI50 (Malme-3M): > 100 µM (inactive)
- GI50 (LOX IMVI): > 100 µM (inactive)
- GI50 (CCRF-CEM): > 100 µM (inactive)
- GI50 (COLO 205): > 100 µM (inactive)
- GI50 (HCC 2998): > 100 µM (inactive)
- GI50 (786-0): > 100 µM (inactive)
- GI50 (UACC-257): > 100 µM (inactive)
- GI50 (OVCAR-3): > 100 µM (inactive)
- GI50 (XF498): > 100 µM (inactive)
- GI50 (M14): > 100 µM (inactive)
- GI50 (HCT-15): > 100 µM

SMILES: Cc1cc(C)nc(NS(=O)(=O)c2ccc(NC(=O)c3cccc4c(=O)c5ccccc5[nH]c34)cc2)n1
- GI50 (MOLT-4): 30.5 µM (inactive)
- GI50 (HT-29): 21.3 µM (inactive)
- GI50 (DMS-273): 22.1 µM (inactive)
- GI50 (K562): 18.6 µM (inactive)
- GI50 (UO-31): 22.2 µM (inactive)
- GI50 (NCI-H460): 17 µM (inactive)
- GI50 (OVCAR-4): 18.5 µM (inactive)
- GI50 (HOP-62): 20.1 µM (inactive)
- GI50 (HOP-92): 20 µM (inactive)
- GI50 (SF-539): 18.4 µM (inactive)
- GI50 (A549): 22.7 µM (inactive)
- GI50 (LXFL 529): 14.3 µM (inactive)
- GI50 (ACHN): 21.6 µM (inactive)
- GI50 (SNB-75): 18.5 µM (inactive)
- GI50 (KM12): 17 µM (inactive)
- GI50 (SR): 24.8 µM (inactive)
- GI50 (SK-MEL-28): 18.8 µM (inactive)
- GI50 (SK-MEL-2): > 10 µM (inactive)
- GI50 (SF-295): 19.8 µM (inactive)
- GI50 (SNB-19): 27.2 µM (inactive)
- GI50 (RPMI-8226): 10.9 µM (inactive)
- GI50 (CAKI-1): 33 µM (inactive)
- GI50 (SNB-78): 21.3 µM (inactive)
- GI50 (EKVX): 26.5 µM (inactive)
- GI50 (HCT-116): 17 µM (inactive)
- GI50 (SW-620): 23.5 µM (inactive)
- GI50 (NCI-H23): 17 µM (inactive)
- GI50 (NCI-H522): 13.1 µM (inactive)
- GI50 (HL-60): 16.6 µM (inactive)
- GI50 (A498): 18.2 µM (inactive)
- GI50 (OVCAR-5): > 10 µM (inactive)
- GI50 (SF-268): 21.8 µM (inactive)
- GI50 (TK-10): 25.9 µM (inactive)
- GI50 (DMS-114): 18.4 µM (inactive)
- GI50 (RXF 631): 60 µM (inactive)
- GI50 (OVCAR-8): 19.2 µM (inactive)
- GI50 (NCI-H226): 19.1 µM (inactive)
- GI50 (SK-MEL-5): 11.7 µM (inactive)
- GI50 (UACC-62): 20 µM (inactive)
- GI50 (SK-OV-3): 0.18 µM (active)
- GI50 (U-251): 16.5 µM (inactive)
- GI50 (IGROV-1): 26.1 µM (inactive)
- GI50 (KM-20L2): 19.5 µM (inactive)
- GI50 (DLD-1): 20.7 µM (inactive)
- GI50 (HOP-18): 18.5 µM (inactive)
- GI50 (SN12C): 15.9 µM (inactive)
- GI50 (Malme-3M): 17.9 µM (inactive)
- GI50 (LOX IMVI): 15.2 µM (inactive)
- GI50 (CCRF-CEM): 13 µM (inactive)
- GI50 (COLO 205): 18.3 µM (inactive)
- GI50 (HCC 2998): 16.7 µM (inactive)
- GI50 (786-0): 18.7 µM (inactive)
- GI50 (UACC-257): 17.9 µM (inactive)
- GI50 (OVCAR-3): 19.5 µM (inactive)
- GI50 (XF498): 13.5 µM (inactive)
- GI50 (M14): 18.9 µM (inactive)
- GI50 (HCT-15): 19.7 µM
